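Step 1: Grow cells in 96-well plates. Step 2: Expose to compound for 48 hours at 5 concentrations. Step 3: Interpolate endpoints linearly; if unreached, use highest concentration. GI50 = concentration required for 50% inhibition of growth.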 Active and inactive are the calls of the source. Rule as the data show it: active = GI50 up to about 1.1 µM and inactive = higher.
What was measured:
Assay in all cases: DTP human tumour cell line panel, 48 h
HT-29 = tested on: HT-29
UACC-257 = tested on: UACC-257
Hs-578T = tested on: Hs-578T
MDA-MB-231 = tested on: MDA-MB-231
M14 = tested on: M14
T47D = tested on: T47D
A498 = tested on: A498
COLO 205 = tested on: COLO 205
KM12 = tested on: KM12
SF-268 = tested on: SF-268
RXF 393 = tested on: RXF 393
OVCAR-3 = tested on: OVCAR-3
SK-OV-3 = tested on: SK-OV-3
OVCAR-4 = tested on: OVCAR-4
MOLT-4 = tested on: MOLT-4
SW-620 = tested on: SW-620
BT-549 = tested on: BT-549
MCF7 = tested on: MCF7
HOP-92 = tested on: HOP-92

SMILES | GI50 (HT-29) | GI50 (UACC-257) | GI50 (Hs-578T) | GI50 (MDA-MB-231) | GI50 (M14) | GI50 (T47D) | GI50 (A498) | GI50 (COLO 205) | GI50 (KM12) | GI50 (SF-268) | GI50 (RXF 393) | GI50 (OVCAR-3) | GI50 (SK-OV-3) | GI50 (OVCAR-4) | GI50 (MOLT-4) | GI50 (SW-620) | GI50 (BT-549) | GI50 (MCF7) | GI50 (HOP-92)
O=C1N[C@@H](COc2ccc(/C=N/c3ccc(CCc4ccc(/N=C/c5ccc(OC[C@@H]6COC(=O)N6)cc5)cc4)cc3)cc2)CO1 | > 100 µM (inactive) | > 100 µM (inactive) | > 100 µM (inactive) | > 100 µM (inactive) | > 100 µM (inactive) | > 100 µM (inactive) | > 100 µM (inactive) | > 100 µM (inactive) | > 100 µM (inactive) | > 100 µM (inactive) | > 100 µM (inactive) | > 100 µM (inactive) | > 100 µM (inactive) | > 100 µM (inactive) | > 100 µM (inactive) | > 100 µM (inactive) | – | – | –
N#CCCN(CCC#N)c1ccc(/C=C2\N=C(c3cc([N+](=O)[O-])ccc3Cl)OC2=O)cc1 | > 100 µM (inactive) | 20 µM (inactive) | – | – | 35.6 µM (inactive) | – | > 100 µM (inactive) | – | 14.7 µM (inactive) | 45.1 µM (inactive) | – | 27.8 µM (inactive) | > 100 µM (inactive) | 30 µM (inactive) | 24.2 µM (inactive) | 68.4 µM (inactive) | – | – | –
COC(C)(C)C1=CCC(C)CC1 (stereo unspecified) | > 100 µM (inactive) | > 100 µM (inactive) | > 100 µM (inactive) | – | > 100 µM (inactive) | – | > 100 µM (inactive) | > 100 µM (inactive) | > 100 µM (inactive) | > 100 µM (inactive) | > 100 µM (inactive) | > 100 µM (inactive) | > 100 µM (inactive) | > 100 µM (inactive) | 30 µM (inactive) | > 100 µM (inactive) | > 100 µM (inactive) | 41.8 µM (inactive) | > 100 µM (inactive)
NC(=S)N/N=C/c1nccc2ccccc12 | 0.731 µM (active) | – | – | – | 0.482 µM (active) | – | 0.515 µM (active) | 0.957 µM (active) | 0.873 µM (active) | 0.377 µM (active) | 0.257 µM (active) | 0.307 µM (active) | 0.594 µM (active) | 0.54 µM (active) | 0.461 µM (active) | 0.802 µM (active) | – | – | 2.74 µM (inactive)
NC(=O)c1cc(N(CCO)CCO)c([N+](=O)[O-])cc1[N+](=O)[O-] | > 100 µM (inactive) | > 100 µM (inactive) | > 100 µM (inactive) | – | > 100 µM (inactive) | > 100 µM (inactive) | > 100 µM (inactive) | > 100 µM (inactive) | > 100 µM (inactive) | > 100 µM (inactive) | > 100 µM (inactive) | > 100 µM (inactive) | > 100 µM (inactive) | > 100 µM (inactive) | > 100 µM (inactive) | > 100 µM (inactive) | – | > 100 µM (inactive) | > 100 µM (inactive)
CC1=CP(=O)(OC(C)C)C=C(C)C1=C(Cl)Cl (stereo unspecified) | 45.6 µM (inactive) | 32.2 µM (inactive) | – | – | 59.6 µM (inactive) | – | – | 18.2 µM (inactive) | 22.5 µM (inactive) | > 100 µM (inactive) | 66.2 µM (inactive) | > 100 µM (inactive) | 17.4 µM (inactive) | > 100 µM (inactive) | 57.4 µM (inactive) | 44 µM (inactive) | – | – | 16.9 µM (inactive)
O=Cc1[nH]c(=O)[nH]c(=O)c1C(=O)O | > 100 µM (inactive) | > 100 µM (inactive) | > 100 µM (inactive) | > 100 µM (inactive) | > 100 µM (inactive) | > 100 µM (inactive) | – | > 100 µM (inactive) | > 100 µM (inactive) | > 100 µM (inactive) | > 100 µM (inactive) | > 100 µM (inactive) | > 100 µM (inactive) | > 100 µM (inactive) | > 100 µM (inactive) | > 100 µM (inactive) | – | > 100 µM (inactive) | > 100 µM (inactive)
CC1CC/C(=C\c2ccc(Cl)cc2)c2nc(N)c(C#N)c(-c3ccc(Cl)cc3)c21 (stereo unspecified) | 30.7 µM (inactive) | 32.9 µM (inactive) | – | > 100 µM (inactive) | 57.8 µM (inactive) | 55.3 µM (inactive) | 26.3 µM (inactive) | 41.4 µM (inactive) | 40.2 µM (inactive) | – | – | 47.1 µM (inactive) | > 100 µM (inactive) | > 100 µM (inactive) | 14.1 µM (inactive) | 55.3 µM (inactive) | 75.5 µM (inactive) | 22.8 µM (inactive) | –
Cc1ccc(/C(=C/C=C(C#N)C#N)Sc2cc(Cl)ccc2Cl)cc1 | 3.81 µM (inactive) | 2.78 µM (inactive) | 2.42 µM (inactive) | 3.18 µM (inactive) | 4.48 µM (inactive) | 12.9 µM (inactive) | – | 4.86 µM (inactive) | 4.78 µM (inactive) | 5.97 µM (inactive) | 7.29 µM (inactive) | 3.06 µM (inactive) | 8 µM (inactive) | 6.31 µM (inactive) | – | 1.66 µM (inactive) | – | 17.5 µM (inactive) | –
O=C1/C(=C/c2ccccc2)N=C(c2ccccc2)N1C1Nc2cc3c(cc2S1)NC(N1C(=O)/C(=C/c2ccccc2)N=C1c1ccccc1)S3 (stereo unspecified) | 5.01 µM (inactive) | 3.78 µM (inactive) | – | 1.82 µM (inactive) | 9.51 µM (inactive) | 30.4 µM (inactive) | 16.9 µM (inactive) | – | 6.87 µM (inactive) | 5.61 µM (inactive) | 18.4 µM (inactive) | 37.1 µM (inactive) | > 100 µM (inactive) | 51.1 µM (inactive) | 4.13 µM (inactive) | 3.8 µM (inactive) | – | 22.3 µM (inactive) | 2.31 µM (inactive)
C[Si]1(C)C(c2ccccc2)=CC2C(c3ccccc3)(c3ccccc3)OC21c1ccccc1 (stereo unspecified) | 43 µM (inactive) | > 100 µM (inactive) | – | – | 43.8 µM (inactive) | – | > 100 µM (inactive) | > 100 µM (inactive) | > 100 µM (inactive) | > 100 µM (inactive) | 47.5 µM (inactive) | > 100 µM (inactive) | > 100 µM (inactive) | > 100 µM (inactive) | 58.1 µM (inactive) | > 100 µM (inactive) | – | – | 48.5 µM (inactive)
O=c1[nH]nc(-c2ccccc2)n1Nc1ccccc1 | > 100 µM (inactive) | > 100 µM (inactive) | > 100 µM (inactive) | > 100 µM (inactive) | > 100 µM (inactive) | > 100 µM (inactive) | > 100 µM (inactive) | > 100 µM (inactive) | > 100 µM (inactive) | > 100 µM (inactive) | > 100 µM (inactive) | > 100 µM (inactive) | > 100 µM (inactive) | > 100 µM (inactive) | > 100 µM (inactive) | > 100 µM (inactive) | – | – | > 100 µM (inactive)
COc1ccc(OC)c(CNc2ccc(C(=O)O)cc2)c1 | > 100 µM (inactive) | > 100 µM (inactive) | > 100 µM (inactive) | > 100 µM (inactive) | > 100 µM (inactive) | – | > 100 µM (inactive) | > 100 µM (inactive) | > 100 µM (inactive) | > 100 µM (inactive) | – | > 100 µM (inactive) | > 100 µM (inactive) | > 100 µM (inactive) | > 100 µM (inactive) | > 100 µM (inactive) | > 100 µM (inactive) | > 100 µM (inactive) | > 100 µM (inactive)
O=C1CN(c2ccc(Cl)cc2)C(=O)CN1NCNN1CC(=O)N(c2ccc(Cl)cc2)CC1=O | > 100 µM (inactive) | > 100 µM (inactive) | > 100 µM (inactive) | – | > 100 µM (inactive) | – | > 100 µM (inactive) | > 100 µM (inactive) | > 100 µM (inactive) | > 100 µM (inactive) | > 100 µM (inactive) | > 100 µM (inactive) | > 100 µM (inactive) | > 100 µM (inactive) | > 100 µM (inactive) | > 100 µM (inactive) | > 100 µM (inactive) | > 100 µM (inactive) | > 100 µM (inactive)
CSC(=S)Nc1cccc(C)n1 | > 100 µM (inactive) | > 100 µM (inactive) | > 100 µM (inactive) | > 100 µM (inactive) | > 100 µM (inactive) | > 100 µM (inactive) | > 100 µM (inactive) | > 100 µM (inactive) | > 100 µM (inactive) | > 100 µM (inactive) | > 100 µM (inactive) | 52.4 µM (inactive) | > 100 µM (inactive) | > 100 µM (inactive) | > 100 µM (inactive) | > 100 µM (inactive) | – | > 100 µM (inactive) | > 100 µM (inactive)
Cc1csc2[n+]1C(=O)/C(=C\c1ccc([N+](=O)[O-])cc1)S2 | 23.9 µM (inactive) | 29.9 µM (inactive) | 25.6 µM (inactive) | 27.3 µM (inactive) | 34 µM (inactive) | 21.2 µM (inactive) | 22.7 µM (inactive) | 19.7 µM (inactive) | 20.5 µM (inactive) | 20.3 µM (inactive) | 29 µM (inactive) | 15.3 µM (inactive) | 31.5 µM (inactive) | 42.3 µM (inactive) | 29.5 µM (inactive) | 40.8 µM (inactive) | – | 32.7 µM (inactive) | 19.4 µM (inactive)
CON(C)C(=O)C(C)NC(=O)OCc1ccccc1 (stereo unspecified) | > 100 µM (inactive) | > 100 µM (inactive) | > 100 µM (inactive) | – | > 100 µM (inactive) | – | > 100 µM (inactive) | – | > 100 µM (inactive) | > 100 µM (inactive) | > 100 µM (inactive) | > 100 µM (inactive) | > 100 µM (inactive) | – | > 100 µM (inactive) | > 100 µM (inactive) | > 100 µM (inactive) | > 100 µM (inactive) | > 100 µM (inactive)

— ChEMBL document CHEMBL1201862, “PubChem BioAssay data set” (2004)
